Laboratory results: US9096624B2 (OSI Pharmaceuticals, LLC, priority 2009, dated 2015)

Tests used:
[1] = target: T1, FAK (Homo sapiens, UniProt Q05397); experiment: Cell-based capture ELISA for inhibition of FAK autophosphorylation [pY397] in U87MG cells; conditions: Mean FAK Cell Mechanistic IC50 + 50% mP U87MG, + 50% mouse plasma
[2] = target: T1, FAK; experiment: biochemical

T1 sequence (Q05397 whole entry): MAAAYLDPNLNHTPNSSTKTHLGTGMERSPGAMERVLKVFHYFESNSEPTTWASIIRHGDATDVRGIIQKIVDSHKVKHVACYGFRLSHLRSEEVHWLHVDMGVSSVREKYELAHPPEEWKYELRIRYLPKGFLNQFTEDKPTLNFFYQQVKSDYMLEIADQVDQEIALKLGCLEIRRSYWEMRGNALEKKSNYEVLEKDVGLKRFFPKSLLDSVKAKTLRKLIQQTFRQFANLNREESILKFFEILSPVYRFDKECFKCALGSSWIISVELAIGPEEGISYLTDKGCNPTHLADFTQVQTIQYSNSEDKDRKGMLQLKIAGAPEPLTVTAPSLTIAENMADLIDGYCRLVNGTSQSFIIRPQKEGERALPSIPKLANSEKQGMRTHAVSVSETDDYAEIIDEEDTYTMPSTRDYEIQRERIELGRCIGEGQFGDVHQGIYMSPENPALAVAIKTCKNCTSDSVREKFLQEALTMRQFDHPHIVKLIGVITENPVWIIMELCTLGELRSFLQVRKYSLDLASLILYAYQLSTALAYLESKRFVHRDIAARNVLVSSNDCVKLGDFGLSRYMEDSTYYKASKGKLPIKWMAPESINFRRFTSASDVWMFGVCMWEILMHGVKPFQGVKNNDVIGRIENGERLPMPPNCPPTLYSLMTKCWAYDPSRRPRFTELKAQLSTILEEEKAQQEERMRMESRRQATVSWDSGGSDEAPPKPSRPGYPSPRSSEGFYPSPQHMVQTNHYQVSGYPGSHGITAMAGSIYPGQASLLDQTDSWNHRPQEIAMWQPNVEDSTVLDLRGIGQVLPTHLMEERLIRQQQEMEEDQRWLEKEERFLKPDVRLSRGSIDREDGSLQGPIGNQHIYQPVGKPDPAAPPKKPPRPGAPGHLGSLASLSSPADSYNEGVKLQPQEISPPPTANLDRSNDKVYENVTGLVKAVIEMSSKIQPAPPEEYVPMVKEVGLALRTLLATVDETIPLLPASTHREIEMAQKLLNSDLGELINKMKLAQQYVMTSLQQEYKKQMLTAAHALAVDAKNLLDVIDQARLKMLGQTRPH

| SMILES | IC50 [1] | IC50 [2] |
| --- | --- | --- |
| CCOP(=O)(Cc1ccc(Nc2ncc(C(F)(F)F)c(Nc3ccc(C4CCC(O)(C(=O)O)CC4)c4c3C(=O)N(C)C4)n2)c(OC)c1)OCC (single isomer, unassigned) [Example 278, 4-(7-{2-[4-(Diethoxy-phosphorylmethyl)-2-methoxy-phenylamino]-5-trifluoromethyl-pyrimidin-4-ylamino}-2-methyl-1-oxo-2,3-dihydro-1H-isoindol-4-yl)-1-hydroxy-cyclohexanecarboxylic acid] | 1000 to 10000 nM | < 1000 nM |
| CCOP(=O)(Cc1ccc(Nc2ncc(C(F)(F)F)c(Nc3c(F)cccc3C(=O)NC)n2)c(OC)c1)OCC [Example 154, Diethyl (4-{[4-{[2-fluoro-6-(methylcarbamoyl)phenyl]amino}-5-(trifluoromethyl)pyrimidin-2-yl]amino}-3-methoxybenzyl)phosphonate] | < 1000 nM | < 1000 nM |
| CCOP(=O)(Cc1ccc(Nc2ncc(C(F)(F)F)c(Nc3cccc(F)c3C(=O)NC)n2)c(OC)c1)OCC [Example 155, diethyl (4-{[4-{[3-fluoro-2-(methylcarbamoyl)phenyl]amino}-5-(trifluoromethyl)pyrimidin-2-yl]amino}-3-methoxybenzyl)phosphonate] | < 1000 nM | < 1000 nM |
| CCOP(=O)(Cc1ccc(Nc2ncc(C(F)(F)F)c(Nc3ccc([C@H]4CC[C@H](O)CC4)cc3C(=O)N(C)C)n2)c(OC)c1)OCC [Example 195, diethyl (4-{[4-{[2-(dimethylcarbamoyl)-4-(trans-4-hydroxycyclohexyl)phenyl]amino}-5-(trifluoromethyl)pyrimidin-2-yl]amino}-3-methoxybenzyl)phosphonate] | 1000 to 10000 nM | < 1000 nM |
| CCOP(=O)(CC)Cc1ccc(Nc2ncc(C(F)(F)F)c(Nc3ccc([C@H]4CC[C@H](O)CC4)c4c3C(=O)N(C)C4)n2)cc1 (stereo partly drawn) [Example 202, Ethyl ethyl(4-{[4-{[7-(trans-4-hydroxycyclohexyl)-2-methyl-3-oxo-2,3-dihydro-1H-isoindol-4-yl]amino}-5-(trifluoromethyl)pyrimidin-2-yl]amino}benzyl)phosphinate] | < 1000 nM | < 1000 nM |
| CCOP(=O)(Cc1ccc(Nc2ncc(C(F)(F)F)c(Nc3ccc(N4CCC(C(=O)O)CC4)c4c3C(=O)N(C)C4)n2)c(OC)c1)OCC [Example 256, 1-(7-{[2-({4-[(Diethoxyphosphoryl)methyl]-2-methoxyphenyl}amino)-5-(trifluoromethyl)pyrimidin-4-yl]amino}-2-methyl-1-oxo-2,3-dihydro-1H-isoindol-4-yl)piperidine-4-carboxylic acid] | < 1000 nM | < 1000 nM |
| CCOP(=O)(Cc1ccc(Nc2ncc(C(F)(F)F)c(Nc3ccccc3C(=O)NOC)n2)c(OC)c1)OCC [Example 259, Diethyl (3-methoxy-4-{[4-{[2-(methoxycarbamoyl)phenyl]amino}-5-(trifluoromethyl)pyrimidin-2-yl]amino}benzyl)phosphonate] | < 1000 nM | < 1000 nM |
| CCOP(=O)(Cc1ccc(Nc2ncc(C(F)(F)F)c(Nc3ccc(C4=CCNCC4)c4c3C(=O)N(C)C4)n2)c(OC)c1)OCC [Example 262, Diethyl (3-methoxy-4-{[4-{[2-methyl-3-oxo-7-(1,2,3,6-tetrahydropyridin-4-yl)-2,3-dihydro-1H-isoindol-4-yl]amino}-5-(trifluoromethyl)pyrimidin-2-yl]amino}benzyl)phosphonate] | < 1000 nM | < 1000 nM |
| CCOP(=O)(Cc1ccc(Nc2ncc(C(F)(F)F)c(Nc3ccc(C4CCNCC4)c4c3C(=O)N(C)C4)n2)c(OC)c1)OCC [Example 263, Diethyl (3-methoxy-4-{[4-{[2-methyl-3-oxo-7-(piperidin-4-yl)-2,3-dihydro-1H-isoindol-4-yl]amino}-5-(trifluoromethyl)pyrimidin-2-yl]amino}benzyl)phosphonate] | < 1000 nM | < 1000 nM |
| CCOP(=O)(Cc1ccc(Nc2ncc(C(F)(F)F)c(Nc3ccc(C4=CCN(C)CC4)c4c3C(=O)N(C)C4)n2)c(OC)c1)OCC [Example 264, Diethyl (3-methoxy-4-{[4-{[2-methyl-7-(1-methyl-1,2,3,6-tetrahydropyridin-4-yl)-3-oxo-2,3-dihydro-1H-isoindol-4-yl]amino}-5-(trifluoromethyl)pyrimidin-2-yl]amino}benzyl)phosphonate] | < 1000 nM | < 1000 nM |
| CCOP(=O)(Cc1ccc(Nc2ncc(C(F)(F)F)c(Nc3ccc([C@H]4CC[C@@H](C(=O)O)CC4)c4c3C(=O)N(C)C4)n2)cn1)OCC [Example 267, cis-4-(7-{[2-({6-[(Diethoxyphosphoryl)methyl]pyridin-3-yl}amino)-5-(trifluoromethyl)pyrimidin-4-yl]amino}-2-methyl-1-oxo-2,3-dihydro-1H-isoindol-4-yl)cyclohexanecarboxylic acid] | 1000 to 10000 nM | > 10000 nM |
| CCOP(=O)(Cc1ccc(Nc2ncc(C(F)(F)F)c(Nc3ccc([C@H]4CC[C@H](C(=O)O)CC4)c4c3C(=O)N(C)C4)n2)cn1)OCC [Example 268, trans-4-(7-{[2-({6-[(diethoxyphosphoryl)methyl]pyridin-3-yl}amino)-5-(trifluoromethyl)pyrimidin-4-yl]amino}-2-methyl-1-oxo-2,3-dihydro-1H-isoindol-4-yl)cyclohexanecarboxylic acid] | 1000 to 10000 nM | 1000 to 10000 nM |
| CCOP(=O)(Cc1ccc(Nc2ncc(C(F)(F)F)c(Nc3ccc(C4CCN(C)CC4)c4c3C(=O)N(C)C4)n2)c(OC)c1)OCC [Example 269, Diethyl (3-methoxy-4-{[4-{[2-methyl-7-(1-methylpiperidin-4-yl)-3-oxo-2,3-dihydro-1H-isoindol-4-yl]amino}-5-(trifluoromethyl)pyrimidin-2-yl]amino}benzyl)phosphonate] | < 1000 nM | < 1000 nM |
| CCOP(=O)(Cc1ccc(Nc2ncc(C(F)(F)F)c(Nc3ccc(-c4ccc(C(=O)O)cc4)c4c3C(=O)N(C)C4)n2)c(OC)c1)OCC [Example 270, 4-(7-{[2-({4-[(diethoxyphosphoryl)methyl]-2-methoxyphenyl}amino)-5-(trifluoromethyl)pyrimidin-4-yl]amino}-2-methyl-1-oxo-2,3-dihydro-1H-isoindol-4-yl)benzoic acid] | 1000 to 10000 nM | < 1000 nM |
| CCOP(=O)(Cc1ccc(Nc2ncc(C(F)(F)F)c(Nc3ccc([C@H]4CC[C@@H](C(=O)NC)CC4)c4c3C(=O)N(C)C4)n2)c(OC)c1)OCC [Example 271, Diethyl (3-methoxy-4-{[4-({2-methyl-7-[cis-4-(methylcarbamoyl)cyclohexyl]-3-oxo-2,3-dihydro-1H-isoindol-4-yl}amino)-5-(trifluoromethyl)pyrimidin-2-yl]amino}benzyl) phosphonate] | < 1000 nM | < 1000 nM |
| CCOP(=O)(Cc1ccc(Nc2ncc(C(F)(F)F)c(Nc3ccc([C@H]4CC[C@@H](C(N)=O)CC4)c4c3C(=O)N(C)C4)n2)c(OC)c1)OCC [Example 272, Diethyl (4-{[4-{[7-(cis-4-carbamoylcyclohexyl)-2-methyl-3-oxo-2,3-dihydro-1H-isoindol-4-yl]amino}-5-(trifluoromethyl)pyrimidin-2-yl]amino}-3-methoxybenzyl)phosphonate] | < 1000 nM | < 1000 nM |
| CCOP(=O)(Cc1ccc(Nc2ncc(C(F)(F)F)c(Nc3ccc([C@H]4CC[C@@H](C(=O)N(C)C)CC4)c4c3C(=O)N(C)C4)n2)c(OC)c1)OCC [Example 273, Diethyl (4-{[4-({7-[cis-4-(dimethylcarbamoyl)cyclohexyl]-2-methyl-3-oxo-2,3-dihydro-1H-isoindol-4-yl}amino)-5-(trifluoromethyl)pyrimidin-2-yl]amino}-3-methoxybenzyl)phosphonate] | < 1000 nM | < 1000 nM |
| CCOP(=O)(Cc1ccc(Nc2ncc(C(F)(F)F)c(Nc3ccc([C@H]4CC[C@@H](C(=O)OCCN(C)C)CC4)c4c3C(=O)N(C)C4)n2)c(OC)c1)OCC [Example 274, 2-(Dimethylamino)ethyl cis-4-(7-{[2-({4-[(diethoxyphosphoryl)methyl]-2-methoxyphenyl}amino)-5-(trifluoromethyl)pyrimidin-4-yl]amino}-2-methyl-1-oxo-2,3-dihydro-1H-isoindol-4-yl)cyclohexanecarboxylate] | < 1000 nM | < 1000 nM |
| CCOP(=O)(Cc1ccc(Nc2ncc(C(F)(F)F)c(Nc3ccc([C@H]4CC[C@@H](C(=O)NO)CC4)c4c3C(=O)N(C)C4)n2)c(OC)c1)OCC [Example 275, Diethyl (4-{[4-({7-[cis-4-(hydroxycarbamoyl)cyclohexyl]-2-methyl-3-oxo-2,3-dihydro-1H-isoindol-4-yl}amino)-5-(trifluoromethyl)pyrimidin-2-yl]amino}-3-methoxybenzyl)phosphonate] | < 1000 nM | < 1000 nM |
| CCOP(=O)(Cc1ccc(Nc2ncc(C(F)(F)F)c(Nc3ccc([C@H]4CC[C@@H](C(=O)NOC)CC4)c4c3C(=O)N(C)C4)n2)c(OC)c1)OCC [Example 276, Diethyl (3-methoxy-4-{[4-({7-[cis-4-(methoxycarbamoyl)cyclohexyl]-2-methyl-3-oxo-2,3-dihydro-1H-isoindol-4-yl}amino)-5-(trifluoromethyl)pyrimidin-2-yl]amino}benzyl)phosphonate] | < 1000 nM | < 1000 nM |
| CCOP(=O)(Cc1ccc(Nc2ncc(C(F)(F)F)c(Nc3ccc([C@H]4CC[C@](C)(C(=O)O)CC4)c4c3C(=O)N(C)C4)n2)c(OC)c1)OCC [Example 282, trans-4-(7-{[2-({4-[(Diethoxyphosphoryl)methyl]-2-methoxyphenyl}amino)-5-(trifluoromethyl)pyrimidin-4-yl]amino}-2-methyl-1-oxo-2,3-dihydro-1H-isoindol-4-yl)-1-methylcyclohexanecarboxylic acid] | < 1000 nM | < 1000 nM |
| CCOP(=O)(Cc1ccc(Nc2ncc(C(F)(F)F)c(Nc3ccc([C@H]4CC[C@@H](C#N)CC4)c4c3C(=O)N(C)C4)n2)c(OC)c1)OCC [Example 283, Diethyl (4-{[4-{[7-(cis-4-cyanocyclohexyl)-2-methyl-3-oxo-2,3-dihydro-1H-isoindol-4-yl]amino}-5-(trifluoromethyl)pyrimidin-2-yl]amino}-3-methoxybenzyl)phosphonate] | < 1000 nM | < 1000 nM |
